Measurements published in patent publication US20130203718A1 (priority 2010, published 2013).

Legend:
hPRB and SMRT = target: T1, hPRB and SMRT (Homo sapiens, UniProt P06401); assay: Mammalian two hybrid assay, recruitment of co-repressor SMRT by hPRB; type: cell-based; conditions: HEK293T, FIGS. 13 and 14
T1 construct: expressed in transfected cells; host or cells: HEK 293T
T1 sequence (P06401 1-933): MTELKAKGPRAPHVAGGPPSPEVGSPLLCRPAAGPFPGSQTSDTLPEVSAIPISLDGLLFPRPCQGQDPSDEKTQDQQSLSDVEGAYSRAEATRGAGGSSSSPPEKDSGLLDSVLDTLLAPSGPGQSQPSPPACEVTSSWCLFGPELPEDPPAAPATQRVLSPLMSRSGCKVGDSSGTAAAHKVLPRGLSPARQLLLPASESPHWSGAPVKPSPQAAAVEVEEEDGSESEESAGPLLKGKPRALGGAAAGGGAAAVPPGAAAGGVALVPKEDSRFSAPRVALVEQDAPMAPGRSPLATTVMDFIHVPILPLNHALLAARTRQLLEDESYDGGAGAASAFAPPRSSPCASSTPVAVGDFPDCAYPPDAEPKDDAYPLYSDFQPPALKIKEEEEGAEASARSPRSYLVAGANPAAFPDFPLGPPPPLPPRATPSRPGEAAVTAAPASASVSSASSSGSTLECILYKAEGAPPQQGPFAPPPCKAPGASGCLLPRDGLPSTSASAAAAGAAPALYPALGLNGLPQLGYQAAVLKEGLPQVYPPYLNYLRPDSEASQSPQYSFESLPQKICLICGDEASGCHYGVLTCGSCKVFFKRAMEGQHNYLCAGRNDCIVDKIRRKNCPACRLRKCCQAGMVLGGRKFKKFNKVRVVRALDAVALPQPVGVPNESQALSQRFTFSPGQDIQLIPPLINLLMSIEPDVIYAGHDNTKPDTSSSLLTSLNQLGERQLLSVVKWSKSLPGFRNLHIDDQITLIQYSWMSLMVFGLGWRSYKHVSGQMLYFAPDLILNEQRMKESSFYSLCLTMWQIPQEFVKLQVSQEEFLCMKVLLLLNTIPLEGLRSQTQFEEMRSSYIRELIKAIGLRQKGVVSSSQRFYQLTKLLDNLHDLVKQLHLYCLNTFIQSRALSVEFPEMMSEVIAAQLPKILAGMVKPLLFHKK
Experimental: (§1) Mammalian Two Hybrid Assays.
(§2) To investigate whether hPR was able to recruit transcriptional corepressors upon APRn binding, two hybrid assays have been performed in HEK 293T cells. Cell transfection were carried out according to the protocol used for the PR transactivation assays, with 1 μg of pGAL4-SMRT or pGAL4-NcoR, 2.5 μg of the PR expression vector pV16-PR and 5 μg of the reporter pG5-luc. The plasmid pGAL4-SMRT and pGAL4-NcoR, provided by P. Balaguer, encode the fusion protein between the GAL4 DNA-binding domain (GAL4DBD) and the receptor interacting domain (RID) of the corepressor […], respectively. The expression vector pV16PR encodes the VP16 activation domain of herpes simplex virus fused to the entire hPR and pG5-luc, provided by P. Fuller, encodes the luciferase gene driven by a GAL4-responsive promoter. […] Cell transfection were carried out according to the PR transactivation assays, by using 2 μg of pM-TIF2/Nter-RID or […], 2 μg of the expression vector pV16PR and 5 μg of the reporter pG5luc. The plasmids pM-TIF2/Nter-RID encodes the fusion proteins between the GAL4 DBD and the 1-867 TIF2 sequence corresponding to the Nter and RID domains. The plasmids pMTIF2-Nter encodes the fusion proteins between the GAL4 DBD and the 1-623 TIF2 sequence corresponding to the Nter domain. After 16 h incubation, the transfected cells were washed with PBS containing 2.5 mM EDTA, trypsinized and replated in 24-well plates. […] Cells were lysed and the luciferase and activities were quantified by using a Mithras reader microplates (Berthold).
Both agonist- and antagonist-bound PR regulate gene transcription with the assistance of transcriptional co-repressors (NCoR, SMRT) or co-activators (namely, TIF-2). To characterize the mechanism by which APRn inactivate hPRB, the capacity of hPRB to recruit transcriptional co-regulators upon APRn binding has been evaluated. […]

hPRB and TIF-2 = target: T2, hPRB and TIF-2 (Homo sapiens, UniProt P06401); assay: Mammalian two hybrid assay, recruitment of co-activator TIF-2 (TIF-2-Nter, TIF-2-NterRID) by hPRB; type: cell-based; conditions: HEK293T; for recruitment of co-activator TIF-2 sequences by hPRB upon ligand binding: TIF-2-Nter and TIF-2-NterRID, FIGS. 15-17; for inhibition of progesterone induced TIF-2 recruitment by hPRB: two hybrid, FIG. 18
T2 construct: expressed in transfected cells; host or cells: HEK 293T
T2 sequence (P06401 1-933): T1 sequence (P06401 1-933)
Experimental: as §1, §2
Both agonist- and antagonist-bound PR regulate gene transcription with the assistance of transcriptional co-repressors (NCoR, SMRT) or co-activators (namely, TIF-2). To characterize the mechanism by which APRn inactivate hPRB, the capacity of hPRB to recruit transcriptional co-regulators upon APRn binding has been evaluated. With this aim, mammalian two-hybrid assays in HEK293T cells have been performed by using two series of fusion proteins: (i) the VP16 activation domain of herpes simplex virus fused to the entire hPRB and (ii) the GAL4 DNA-binding domain (DBD) fused to the receptor interacting domain (RID) of corepressors (NCoR and SMRT), the GAL4 DBD fused to the 1-867 sequence of the co-activator TIF2 (corresponding to the Nter and RID domains), the GAL4 DBD fused to the 1-623 sequence of TIF2 (corresponding to the Nter domain).
Further, the capacity of hPRB to bind the co-activator TIF-2 was examined. The two-hybrid assays were performed with the TIF-2 sequence encompassing its N-ter region alone (TIF-2-Nter) or the sequence including the N-ter and the RID regions (TIF-2-NterRID).

| SMILES | recruitment of co-repressor SMRT by hPRB upon ligand binding (hPRB and SMRT) | melting point [°C] | recruitment of co-activator TIF-2 sequences by hPRB upon ligand binding (hPRB and TIF-2) | inhibition of progesterone induced TIF-2 recruitment by hPRB (hPRB and TIF-2) |
| --- | --- | --- | --- | --- |
| CC(=O)[C@H]1CC[C@H]2[C@@H]3CC=C4C[C@@H](F)CC[C@]4(C)[C@H]3CC[C@]12C [APR-16, 3β-Fluoropregn-5-en-20-one] | unable to recruit | 166 to 167 | unable to recruit the two TIF-2 sequences | able to inhibit the progesterone induced TIF-2 recruitment |
| CC#C[C@]1(O)CCC2C3CC[C@H]4CCCC[C@]4(C)C3CC[C@@]21C (stereo partly drawn) [APR-42, 17α-(1-Propynyl)-5α-androstan-17β-ol] |  | 150 to 151 |  |  |
| CC#C[C@]1(O)CCC2C3CC[C@H]4C[C@@H](F)CC[C@]4(C)C3CC[C@@]21C (stereo partly drawn) [APR-43, 3β-Fluoro-17α-(1-propynyl)-5α-androstan-17β-ol] |  | 139 to 140 |  |  |
| C[C@]12CCC3C(CC=C4C[C@@H](F)CC[C@@H]43)C1CCC2=O (stereo partly drawn) [APR-47, 3β-Fluoro-19-nor-androst-5-en-17-one] | unable to recruit | 102 to 103 | unable to recruit the two TIF-2 sequences | able to inhibit the progesterone induced TIF-2 recruitment |
| CC#C[C@]1(O)CCC2C3CC=C4C[C@@H](F)CC[C@@H]4C3CC[C@@]21C (stereo partly drawn) [APR-51, 3β-Fluoro-17α-(1-propynyl)-19-nor-androst-5-en-17β-ol] |  | 72 to 73 |  |  |
| CC#C[C@]1(O)CCC2C3CC[C@H]4CCCC[C@@H]4C3CC[C@@]21C (stereo partly drawn) [APR-54, 17α-(1-Propynyl)-19-nor-5-androstan-17β-ol] | unable to recruit |  | unable to recruit the two TIF-2 sequences | able to inhibit the progesterone induced TIF-2 recruitment |
